Assays:
[1] = molecular target: T1, Erk2; experiment: Cell-free kinase assay Erk2-ALPHA (ALPHA technology); format: biochemical, human; conditions: 10µM ATP
T1 construct: teils als Volllängenkinasen, teils als verkürzte Fragmente - mindestens aber bestehend aus der funktionellen Kinasedomäne; purchased Upstate 14-173
Text: (§1) Die inhibitorische Wirkung der erfindungsgemäßen Verbindungen wurde an diversen humanen Serin/ Threonin-, Tyrosin- und Lipidkinasen in enzymatischen Assays getestet. Dabei wurden rekombinante humane Kinasen wie z.B. Erk2, Pl3Kalpha, - beta, -gamma, -delta, p38alpha, p38gamma, Jnk1, Jnk2 und andere eingesetzt, teils als Volllängenkinasen, teils als verkürzte Fragmente - mindestens aber bestehend aus der funktionellen Kinasedomäne. Die käuflichen Kinaseproteine (Proqinase, Upstate) wurden als rekombinante Fusionsproteine mit GST-(Glutathion-S-Transferase) oder His-Tag eingesetzt. Je nach Substrattyp wurden die verschiedenen Kinasereaktionen mittels geeigneter ALPHA™-beads (PerkinElmer) quantifiziert.
(§2) Nachfolgend wird die Substanztestung am Erk-Assay genauer beschrieben. Ausgewählte Testergebnisse der Erk2-, PI3Kalpha-Assays sind unten aufgeführt. […] Anschließend wurde die Kinasereaktion durch Zugabe von 10µl des mit anti-phospho MBP-Antikörpers (320pM, #05-429/ Upstate) präinkubierten ALPHA-Beadmixes (10µg/ml, #6760617/ PerkinElmer) in 25mM Tris, 200mM NaCl, 100mM EDTA und 0.3% BSA abgestoppt und über Nacht stehen gelassen. • b) PI3K-ALPHAs (z.B. PI3Kalpha): Die Testsubstanz, 1ng PI3Kalpha (#14-602, Upstate), 100µM ATP und 20µM PIP2-Substrat (#P4508, Echelon) auf einer 384er Optiplate (PerkinElmer) für 1h in 50mM Hepes, 50mM NaCl, 5mM MgCl2, 0.05% Chaps, 5mM DTT bei pH 7.4 inkubiert. Anschließend wurde die Kinasereaktion durch Zugabe des mit 1nM GST:Grp1-Fusionsprotein (Upstate) und 15nM biotinyliertem PIP3 (#C-39B6/ Echelon) präinkubierten ALPHA-Beadmixes (10µg/ml, #6760603/ PerkinElmer) in 50mM Hepes, 50mM NaCl, 50mM EDTA und 0.1% BSA abgestoppt und über Nacht stehen gelassen.
(§3) Die Fluoreszenzdetektion erfolgte am nächsten Morgen in einem Fusion™alpha-Gerät (PerkinElmer).
(§4) Die Berechnung der %-Inhibitionswerte je Substanz-Konzentration geschah mittels folgender Formel aus den im Fusion™alpha ermittelten Rohdaten: % Kinase Inhibition(Probe) = 100-(100×(MittelwertProbe -Mittelwert0% Kontrolle)/(Mittelwert100% Kontrolle -Mittelwert0% Kontrolle)) [formula]
(§5) Die Kontrollen wurden jeweils 8fach, die Substanzproben jeweils 2fach bestimmt. Die 0%-Kontrolle enthielt entweder kein ATP oder kein Substrat, die 100%-Kontrolle enthielt keine Testsubstanz. Die IC50-Werte wurden mit GraphPadPrism ermittelt.

[2] = molecular target: T2, PI3Kalpha (Homo sapiens, UniProt P42336); experiment: Cell-free kinase assay PI3K-ALPHA (ALPHA technology); format: biochemical; conditions: 100µM ATP
T2 construct: teils als Volllängenkinasen, teils als verkürzte Fragmente - mindestens aber bestehend aus der funktionellen Kinasedomäne; purchased Upstate 14-602
Text: as §1, §2, §3, §4, §5

[3] = tested on: MDA-MB468; experiment: Cellular anti-proliferative XTT assay; format: cell-based; conditions: Homo sapiens, MDA-MB-468, 45h incubation
Text: (§6) Das Prinzip dieses Testes beruht auf der intrazellulären Reduktion des Tetrazolium-Farbstoffes XTT (Natrium 3'-[1-(phenylaminocarbonyl)-3,4-tetrazolium]-bis(4-methoxy-6-nitro)benzensulfonsäure, Sigma) zu einem Formazan-Farbstoff durch mitochondriale Dehydrogenasen. Der Farbstoff wird nur von stoffwechselaktiven Zellen gebildet, seine photometrisch messbare Intensität ist ein quantitativer Indikator für das Vorhandensein lebender Zellen. Die Reduzierung der Farbstoffbildung durch Inkubation der Zellen mit Substanzen dient als Parameter für die anti-proliferative Wirkung.
(§7) Die Tumorzelllinien (ATCC) wurden in 96er Mikrotiterplatten in definierter Zellzahl (5000 Zellen/ Well für BxPC3 und Hct116; 10000 Zellen/ Well für MDA MB468) eingesäat und anschließend über Nacht im Brutschrank bei 37°C, 5% CO2 und 95% Luftfeuchtigkeit inkubiert. Die Testsubstanzen wurden als Stammlösungen (10 mM) in DMSO angesetzt. […] Die Zellplatten wurden dann für 45h im Brutschrank bei 37°C, 5% CO2 und 95% Luftfeuchtigkeit inkubiert.
(§8) Für die Detektionssreaktion wurde das Substrat XTT mit PMS (N-Methyl Dibenzopyrazine Methylsulfat, Sigma) versetzt und zu den Zellen gegeben, sodass eine finale Konzentration von 325µg XTT/ml und 2.5µg PMS/ml resultierte. Es wurde dann für 3h bei 37°C, 95% Luftfeuchte inkubiert. Anschließend konnte das durch zelluläre Dehydrogenasen gebildete Formazan Salz bei einer Adsorption bei 490nm quantifiziert werden.
(§9) Die Auswertung der %-Inhibitions-Werte geschah mittels folgender Formel aus den Werten für die jeweils gemessenen optischen Dichten bei 490nm: % Inhibition Zellproliferation(Probe) = 100-(100×(MittelwertProbe -Mittelwert0% Kontrolle)/(Mittelwert100% Kontrolle -Mittelwert0% Kontrolle)) [formula]
(§10) Die Kontrollen wurden jeweils 8fach, die Substanzproben jeweils 2fach bestimmt. Die 0%-Kontrolle enthielt keine Zellen, die 100%-Kontrolle enthielt keine Testsubstanz. Die EC50-Werte wurden mit GraphPadPrism ermittelt.

[4] = tested on: Hct116; experiment: Cellular anti-proliferative XTT assay; format: cell-based; conditions: Homo sapiens, HCT-116, 45h incubation
Text: as §6, §7, §8, §9, §10

[5] = tested on: BxPC3; experiment: Cellular anti-proliferative XTT assay; format: cell-based; conditions: Homo sapiens, BXPC-3, 45h incubation
Text: as §6, §7, §8, §9, §10

T1 sequence (P63085 2-358 limits assumed): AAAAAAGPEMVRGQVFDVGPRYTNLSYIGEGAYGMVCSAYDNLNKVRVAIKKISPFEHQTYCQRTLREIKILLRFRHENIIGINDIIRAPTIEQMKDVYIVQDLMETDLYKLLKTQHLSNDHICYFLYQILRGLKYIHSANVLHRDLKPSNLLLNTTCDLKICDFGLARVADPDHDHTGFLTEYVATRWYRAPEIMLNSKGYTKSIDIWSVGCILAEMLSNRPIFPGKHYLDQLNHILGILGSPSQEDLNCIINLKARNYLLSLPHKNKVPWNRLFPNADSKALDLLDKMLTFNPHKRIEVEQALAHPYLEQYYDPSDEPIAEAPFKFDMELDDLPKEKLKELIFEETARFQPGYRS
T2 sequence (P42336 whole entry, the tested form may be a part): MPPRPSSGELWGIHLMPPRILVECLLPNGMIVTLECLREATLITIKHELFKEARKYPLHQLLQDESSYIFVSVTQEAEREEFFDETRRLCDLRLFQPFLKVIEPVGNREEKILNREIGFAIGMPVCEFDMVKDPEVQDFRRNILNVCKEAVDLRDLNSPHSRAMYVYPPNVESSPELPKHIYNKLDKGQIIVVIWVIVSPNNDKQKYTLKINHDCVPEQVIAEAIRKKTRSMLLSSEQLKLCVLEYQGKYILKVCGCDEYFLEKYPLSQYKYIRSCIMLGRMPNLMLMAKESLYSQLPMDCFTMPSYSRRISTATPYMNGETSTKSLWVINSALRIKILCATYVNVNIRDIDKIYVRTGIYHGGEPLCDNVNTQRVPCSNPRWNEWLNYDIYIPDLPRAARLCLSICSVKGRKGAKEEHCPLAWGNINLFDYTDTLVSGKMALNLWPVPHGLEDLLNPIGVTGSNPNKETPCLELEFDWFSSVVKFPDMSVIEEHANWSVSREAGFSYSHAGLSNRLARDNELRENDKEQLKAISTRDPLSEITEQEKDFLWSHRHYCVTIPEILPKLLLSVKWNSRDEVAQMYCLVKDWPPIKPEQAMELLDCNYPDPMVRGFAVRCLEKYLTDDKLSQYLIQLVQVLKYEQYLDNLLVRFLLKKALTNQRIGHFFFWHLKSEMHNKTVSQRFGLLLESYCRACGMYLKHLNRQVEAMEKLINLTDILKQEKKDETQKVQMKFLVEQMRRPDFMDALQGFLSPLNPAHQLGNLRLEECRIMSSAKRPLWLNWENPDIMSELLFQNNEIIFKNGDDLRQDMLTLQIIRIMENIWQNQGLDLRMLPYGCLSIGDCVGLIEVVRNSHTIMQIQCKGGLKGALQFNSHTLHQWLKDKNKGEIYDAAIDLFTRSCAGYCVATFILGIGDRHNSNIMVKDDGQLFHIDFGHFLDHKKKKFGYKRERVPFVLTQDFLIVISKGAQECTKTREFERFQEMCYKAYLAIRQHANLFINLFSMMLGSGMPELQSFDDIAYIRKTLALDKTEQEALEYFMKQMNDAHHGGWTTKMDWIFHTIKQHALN
T2 sequence (P27986 whole entry partner, the tested form may be a part): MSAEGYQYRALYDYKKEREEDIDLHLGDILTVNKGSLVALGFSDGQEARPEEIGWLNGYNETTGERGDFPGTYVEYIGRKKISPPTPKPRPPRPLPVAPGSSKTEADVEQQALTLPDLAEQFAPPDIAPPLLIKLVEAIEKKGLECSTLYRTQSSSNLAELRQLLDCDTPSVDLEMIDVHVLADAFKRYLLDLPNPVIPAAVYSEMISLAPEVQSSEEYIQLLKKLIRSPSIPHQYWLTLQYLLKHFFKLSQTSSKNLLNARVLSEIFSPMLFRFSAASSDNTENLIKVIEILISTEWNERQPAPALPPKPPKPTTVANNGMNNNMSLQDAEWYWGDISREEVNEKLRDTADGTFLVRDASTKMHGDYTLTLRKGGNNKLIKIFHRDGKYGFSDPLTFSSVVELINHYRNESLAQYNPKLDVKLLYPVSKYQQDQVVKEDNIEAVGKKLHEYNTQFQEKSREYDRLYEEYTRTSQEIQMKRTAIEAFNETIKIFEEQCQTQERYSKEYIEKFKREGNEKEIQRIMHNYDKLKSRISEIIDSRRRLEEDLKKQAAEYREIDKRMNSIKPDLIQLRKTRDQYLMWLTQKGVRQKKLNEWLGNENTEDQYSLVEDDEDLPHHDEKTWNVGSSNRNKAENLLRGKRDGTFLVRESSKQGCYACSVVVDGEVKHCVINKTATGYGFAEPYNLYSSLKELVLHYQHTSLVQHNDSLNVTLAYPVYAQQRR

| IC50 [1] [µM] | IC50 [2] [µM] | EC50 [3] [µM] | EC50 [4] [µM] | EC50 [5] [µM] | SMILES |
| --- | --- | --- | --- | --- | --- |
| 5.8 | 16.8 | – | – | – | CCNC(=O)Nc1ccc2ncc(C#CC3CC3)nc2n1 [Beispiel 3, 1-(3-Cyclopropylethynyl-pyrido[2,3-b]pyrazin-6-yl)-3-ethyl-harnstoff] |
| 0.407 | 27.9 | – | – | – | CONC(=O)Nc1ccc2ncc(-c3ccccc3)nc2n1 [Beispiel 7, 1-Methoxy-3-(3-phenyl-pyrido[2,3-b]pyrazin-6-yl)-harnstoff] |
| 0.27 | > 31.6 | – | – | – | CCNC(=O)Nc1ccc2ncc(-c3ccc(OC(=O)Oc4ccccc4)cc3)nc2n1 [Beispiel 11, Kohlensäure-4-[6-(3-ethyl-harnstoff)-pyrido[2,3-b]pyrazin-3-yl]-phenyl-phenyl-ester] |

The remaining lines, values behind:

| SMILES | IC50 [1] [µM] | IC50 [2] [µM] | EC50 [3] [µM] | EC50 [4] [µM] | EC50 [5] [µM] |
| --- | --- | --- | --- | --- | --- |
| CCNC(=O)Nc1ccc2ncc(C=CCOC)nc2n1 [Beispiel 6, 1-Ethyl-3-[3-((E)-3-methoxy-propenyl)-pyrido[2,3-b]pyrazin-6-yl]-harnstoff] | – | 21.3 | – | – | – |
| C=CCONC(=O)Nc1ccc2ncc(-c3ccccc3)nc2n1 [Beispiel 8, 1-Allyloxy-3-(3-phenyl-pyrido[2,3-b]pyrazin-6-yl)-harnstoff] | 4.1 | 27.2 | – | – | – |
| CCNC(=O)Nc1ccc2ncc(-c3ccc(OC(=O)OC)cc3)nc2n1 [Beispiel 9, Kohlensäure-4-[6-(3-ethyl-harnstoff)-pyrido[2,3-b]pyrazin-3-yl]-phenyl-methyl-ester] | 0.117 | 7.8 | 15 | 10 | 20 |
| CCNC(=O)Nc1ccc2ncc(-c3ccc(OC(=O)OCCOC)cc3)nc2n1 [Beispiel 10, Kohlensäure-4-[6-(3-ethyl-harnstoff)-pyrido[2,3-b]pyrazin-3-yl]-phenyl-(2-methoxy-ethyl)-ester] | 0.088 | 2.6 | 7 | 5 | 9 |
| CCNC(=O)Nc1ccc2ncc(-c3ccc(OC(=O)N(CC)CC)cc3)nc2n1 [Beispiel 12, Diethyl-carbaminsäure-4-[6-(3-ethyl-harnstoff)-pyrido[2,3-b]pyrazin-3-yl]-phenyl-ester] | 2.8 | 3.4 | – | – | – |
| CCNC(=O)Nc1ccc2ncc(-c3ccc(OC(=O)C=Cc4ccccc4)cc3)nc2n1 [Beispiel 13, (E)-3-Phenyl-acrylsäure-4-[6-(3-ethyl-harnstoff)-pyrido[2,3-b]pyrazin-3-yl]-phenyl-ester] | – | > 31.6 | – | – | – |

From EP1785423A1, “Pyridopyrazine derivatives and their use as kinase modulators” (Zentaris GmbH, priority 2005, dated 2007)
